Values after ≈ are worked out from the molar mass of the structure shown.
Columns and labels:
Aqueous solubility = type: physicochemical
U937 cells = test: Anti-proliferative activity, U937; type: cell-based; conditions: Homo sapiens, U-937; AML-FLT3-negative; supplement values ± SEM; read-out: U937 EC50
H1975 cells = test: Anti-proliferative activity, H1975; type: cell-based; conditions: Homo sapiens, NCI-H1975; NSCLC-EGFR LR/TM; supplement values ± SEM; read-out: H1975 EC50
CYP 1A2 = CYP 1A2 (Homo sapiens, UniProt P05177); test: CYP inhibition assay, CYP 1A2; type: in vitro ADME
Chain of CYP 1A2 (P05177 whole entry): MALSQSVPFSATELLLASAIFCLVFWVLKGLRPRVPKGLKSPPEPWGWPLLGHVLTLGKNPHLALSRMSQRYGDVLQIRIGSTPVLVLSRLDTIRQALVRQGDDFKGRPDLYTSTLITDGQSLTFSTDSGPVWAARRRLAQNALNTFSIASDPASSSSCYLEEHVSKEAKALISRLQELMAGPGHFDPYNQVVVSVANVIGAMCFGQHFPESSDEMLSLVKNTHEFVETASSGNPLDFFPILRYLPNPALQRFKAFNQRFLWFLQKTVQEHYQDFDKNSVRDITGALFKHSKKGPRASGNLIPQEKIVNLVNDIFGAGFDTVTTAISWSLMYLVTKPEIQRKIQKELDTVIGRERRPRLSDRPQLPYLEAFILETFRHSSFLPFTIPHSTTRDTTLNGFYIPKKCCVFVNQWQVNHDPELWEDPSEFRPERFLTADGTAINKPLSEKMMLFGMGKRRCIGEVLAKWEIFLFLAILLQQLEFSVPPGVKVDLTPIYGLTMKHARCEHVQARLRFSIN

HCT-116 cells = test: Anti-proliferative activity, HCT-116; type: cell-based, human; conditions: HCT-116; Human Colon Cancer; supplement values ± SEM; read-out: HCT-116 EC50
ABL1^T315I = ABL1^T315I (Homo sapiens, UniProt P00519, T315I); test: KINOMEScan, ABL1 T315I; conditions: read-out: ABL1^T315I % control
CL 1-5 cells = test: Anti-proliferative activity, CL 1-5; type: cell-based; conditions: CL1-5; Human Lung Adenocarcinoma
AURKA [1] = target: AURKA (Homo sapiens, UniProt O14965); test: KINOMEScan, AURKA; conditions: read-out: AURKA % control
Target sequence in this assay (O14965 whole entry, the tested form may be a part): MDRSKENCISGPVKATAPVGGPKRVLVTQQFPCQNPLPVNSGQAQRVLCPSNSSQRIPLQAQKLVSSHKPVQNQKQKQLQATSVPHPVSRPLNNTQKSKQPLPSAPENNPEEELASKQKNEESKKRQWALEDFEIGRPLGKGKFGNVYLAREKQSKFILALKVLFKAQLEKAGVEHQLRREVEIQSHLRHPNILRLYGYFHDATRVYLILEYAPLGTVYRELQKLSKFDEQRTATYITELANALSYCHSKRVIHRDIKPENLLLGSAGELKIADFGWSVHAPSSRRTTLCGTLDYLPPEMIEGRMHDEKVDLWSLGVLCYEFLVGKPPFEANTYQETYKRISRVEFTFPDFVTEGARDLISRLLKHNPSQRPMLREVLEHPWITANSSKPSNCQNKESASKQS

FLT3 [2] = target: FLT3 (Homo sapiens, UniProt P36888); test: KINOMEScan, FLT3; conditions: read-out: FLT3 % control
CYP 3A4 = CYP 3A4 (Homo sapiens, UniProt P08684); test: CYP inhibition assay, CYP 3A4; type: in vitro ADME
Chain of CYP 3A4 (P08684 whole entry): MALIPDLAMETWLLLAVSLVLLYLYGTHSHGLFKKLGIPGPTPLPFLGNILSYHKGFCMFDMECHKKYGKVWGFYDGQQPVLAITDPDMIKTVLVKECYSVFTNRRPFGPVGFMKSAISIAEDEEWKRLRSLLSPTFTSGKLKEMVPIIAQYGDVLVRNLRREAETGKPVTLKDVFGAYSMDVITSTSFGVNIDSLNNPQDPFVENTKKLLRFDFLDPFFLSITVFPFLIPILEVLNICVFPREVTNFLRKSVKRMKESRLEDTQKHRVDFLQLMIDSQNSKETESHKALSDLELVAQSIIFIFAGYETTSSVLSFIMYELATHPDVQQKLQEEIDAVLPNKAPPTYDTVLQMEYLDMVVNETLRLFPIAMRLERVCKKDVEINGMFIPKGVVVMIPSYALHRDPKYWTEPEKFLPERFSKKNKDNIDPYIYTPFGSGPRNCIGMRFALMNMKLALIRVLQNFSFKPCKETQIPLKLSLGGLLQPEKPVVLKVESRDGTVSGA

CYP 2E1 = CYP 2E1 (Homo sapiens, UniProt P05181); test: CYP inhibition assay, CYP 2E1; type: in vitro ADME
Chain of CYP 2E1 (P05181 whole entry): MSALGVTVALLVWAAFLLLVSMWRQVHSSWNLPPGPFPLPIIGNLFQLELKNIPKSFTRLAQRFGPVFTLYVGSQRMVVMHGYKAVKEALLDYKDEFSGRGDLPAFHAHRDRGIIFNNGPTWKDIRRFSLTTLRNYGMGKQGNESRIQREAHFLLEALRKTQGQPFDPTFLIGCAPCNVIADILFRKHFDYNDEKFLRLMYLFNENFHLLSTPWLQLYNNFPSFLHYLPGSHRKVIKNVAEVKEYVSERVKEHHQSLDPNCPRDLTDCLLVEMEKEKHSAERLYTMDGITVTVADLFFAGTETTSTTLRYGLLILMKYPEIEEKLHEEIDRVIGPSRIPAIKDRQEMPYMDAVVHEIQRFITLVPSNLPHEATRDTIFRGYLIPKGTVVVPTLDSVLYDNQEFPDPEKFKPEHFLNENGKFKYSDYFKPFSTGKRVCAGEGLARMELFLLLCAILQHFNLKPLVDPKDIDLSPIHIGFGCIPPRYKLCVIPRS

FLT3 [3] = target: T1, FLT3 (Homo sapiens, UniProt P36888); test: FLT3 kinase inhibition assay (Kinase-Glo); type: biochemical; conditions: mean of at least two independent experiments, within ±15%
T1 construct: FLT3 kinase catalytic domain (residues Tyr567-Ser993); made in house; host or cells: Sf9 insect cells (baculovirus, pBac-PAK8-GST-FLT3-KD)
T1 sequence (P36888 567-993): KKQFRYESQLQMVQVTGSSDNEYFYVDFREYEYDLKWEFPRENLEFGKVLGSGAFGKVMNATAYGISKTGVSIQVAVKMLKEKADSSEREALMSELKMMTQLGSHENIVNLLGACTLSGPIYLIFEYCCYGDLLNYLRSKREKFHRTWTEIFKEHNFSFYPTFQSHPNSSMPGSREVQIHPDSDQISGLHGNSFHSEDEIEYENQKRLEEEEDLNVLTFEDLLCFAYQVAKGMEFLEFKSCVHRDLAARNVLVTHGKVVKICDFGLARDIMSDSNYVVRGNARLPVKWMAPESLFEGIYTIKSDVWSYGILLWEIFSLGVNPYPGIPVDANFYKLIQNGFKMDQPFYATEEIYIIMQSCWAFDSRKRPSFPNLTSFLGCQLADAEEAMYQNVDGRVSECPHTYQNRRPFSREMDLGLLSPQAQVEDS
Description: The FLT3 assay was conducted as previously described. Briefly, GST-FLT3-KD^WT containing the FLT3 kinase catalytic domain (residues Tyr567-Ser993) was expressed in Sf9 insect cells transfected with the baculovirus containing pBac-PAK8-GST-FLT3-KD plasmid.
(§1) Following incubation, 50 μL Kinase-Glo Plus Reagent (Promega, Madison, WI, USA) was added, and the mixture was incubated at 25°C for 20 min. A 70 μL aliquot of each reaction mixture was transferred to a black microliter plate, and luminescence was measured on a Wallac Vector 1420 multilabel counter (PerkinElmer, Shelton, CT, USA).

FLT3^D835Y = FLT3^D835Y (Homo sapiens, UniProt P36888, D835Y); test: KINOMEScan, FLT3 D835Y; conditions: read-out: FLT3^D835Y % control
AURKA [4] = target: T2, AURKA (Homo sapiens, UniProt O14965); test: AURKA inhibition assay (Kinase-Glo); type: biochemical; conditions: mean of at least two independent experiments, within ±15%
T2 construct: recombinant GST-AURKA (residues Ser123-Ser401) containing the kinase domain; GST (N); made in house; host or cells: Sf9 insect cells
T2 sequence (O14965 123-401): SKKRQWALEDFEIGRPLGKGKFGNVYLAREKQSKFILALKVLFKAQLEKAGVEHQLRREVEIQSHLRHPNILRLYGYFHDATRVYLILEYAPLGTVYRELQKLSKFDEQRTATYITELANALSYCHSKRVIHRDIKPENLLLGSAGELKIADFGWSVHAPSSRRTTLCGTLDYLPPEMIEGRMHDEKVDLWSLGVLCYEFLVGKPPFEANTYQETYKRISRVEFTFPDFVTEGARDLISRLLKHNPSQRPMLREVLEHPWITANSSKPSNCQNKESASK
Description: AURKA assay was conducted as previously described. Briefly, the recombinant GST-AURKA (residues Ser123-Ser401) containing the kinase domain was expressed in Sf9 insect cells.
Following incubation, 50 μL Kinase-Glo Plus Reagent (Promega, Madison, WI, USA) was added, and the mixture was incubated at 25°C for 20 min.

CYP 2D6 = CYP 2D6 (Homo sapiens, UniProt P10635); test: CYP inhibition assay, CYP 2D6; type: in vitro ADME
Chain of CYP 2D6 (P10635 whole entry): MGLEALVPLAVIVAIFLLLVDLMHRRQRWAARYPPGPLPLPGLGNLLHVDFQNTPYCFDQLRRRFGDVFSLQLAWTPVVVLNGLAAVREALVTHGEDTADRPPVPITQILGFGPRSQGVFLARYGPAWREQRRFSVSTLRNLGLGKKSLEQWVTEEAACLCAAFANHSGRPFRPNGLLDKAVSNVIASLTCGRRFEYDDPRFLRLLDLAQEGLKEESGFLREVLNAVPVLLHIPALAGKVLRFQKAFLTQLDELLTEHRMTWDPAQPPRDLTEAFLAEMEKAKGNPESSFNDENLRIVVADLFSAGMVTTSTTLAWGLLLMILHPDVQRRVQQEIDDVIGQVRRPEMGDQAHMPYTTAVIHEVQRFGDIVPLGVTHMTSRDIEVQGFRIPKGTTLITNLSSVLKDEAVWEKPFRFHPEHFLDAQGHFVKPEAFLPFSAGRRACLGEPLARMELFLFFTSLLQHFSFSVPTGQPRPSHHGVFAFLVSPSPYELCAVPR

RS4-11 cells = test: Anti-proliferative activity, RS4-11; type: cell-based; conditions: Homo sapiens, RS4-11; ALL-wt-FLT3 (homozygous); supplement values ± SEM; read-out: RS4-11 EC50
AURKB = AURKB (Homo sapiens, UniProt Q96GD4); test: AURKB inhibition assay (Kinase-Glo); type: biochemical; design: full length His-tagged Aurora-B (residues M1∼A344); His; purchased Invitrogen PV6130; conditions: mean of at least two independent experiments
Chain of AURKB (Q96GD4 whole entry): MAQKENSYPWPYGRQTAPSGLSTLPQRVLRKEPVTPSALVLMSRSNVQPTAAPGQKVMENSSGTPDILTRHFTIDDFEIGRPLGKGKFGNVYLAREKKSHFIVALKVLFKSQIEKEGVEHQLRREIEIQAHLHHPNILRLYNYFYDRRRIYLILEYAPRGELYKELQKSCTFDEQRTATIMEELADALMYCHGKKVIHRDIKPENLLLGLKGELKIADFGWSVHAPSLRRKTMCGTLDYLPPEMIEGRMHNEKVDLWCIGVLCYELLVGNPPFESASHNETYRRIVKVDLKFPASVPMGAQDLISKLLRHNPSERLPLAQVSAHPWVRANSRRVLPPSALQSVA
Description: AURKB assay was conducted as previously described. Briefly, the recombinant full length His-tagged Aurora-B (residues M1∼A344) was purchased from Invitrogen (Catalog number: PV6130). The kinase assay was carried out in 96-well plates with the tested compound in reaction solution (50 mM Tris-HCl pH 7.4, 10 mM NaCl, 10 mM MgCl2, 0.01% BSA, 5 mM ATP, 1 mM DTT and 15 mM tetra(LRRASLG) peptide, and 40 ng recombinant Aurora-B) at 30°C for 180 min.
as §1

Compound: CN(C)CCCOc1ccc2c(NCCc3cnc(NC(=O)Nc4cccc(Cl)c4)s3)ncnc2c1 [BPR1K871, 1-(3-Chlorophenyl)-3-(5-(2-((7-(3-(dimethylamino)propoxy)quinazolin-4-yl)amino)ethyl)thiazol-2-yl)urea]
- solubility (Aqueous solubility; in water): 0.124 µg/mL (≈ 0.236 µM)
- improvement of aqueous solubility in pH ≤ 5.2 buffer solution compared to water (Aqueous solubility; pH ≤ 5.2 buffer solution vs water): up to 4000 fold
- EC50 (U937 cells): 8050 nM
- EC50 (H1975 cells): 495 nM
- IC50 (CYP 1A2): > 4000 nM
- EC50 (HCT-116 cells): 141 nM
- remaining binding at 1 µM (ABL1^T315I): < 4.4%
- EC50 (CL 1-5 cells): 1390 nM
- remaining binding at 1 µM (AURKA [1]): 0%
- remaining binding at 1 µM (FLT3 [2]): 0.2%
- IC50 (CYP 3A4): > 4000 nM
- IC50 (CYP 2E1): > 4000 nM
- IC50 (FLT3 [3]): 19 nM
- remaining binding at 1 µM (FLT3^D835Y): < 5.2%
- IC50 (AURKA [4]): 22 nM
- IC50 (CYP 2D6): > 4000 nM
- EC50 (RS4-11 cells): 11 nM
- IC50 (AURKB): 13 nM

From paper PMC5349910, “Discovery of BPR1K871, a quinazoline based, multi-kinase inhibitor for the treatment of AML and solid tumors: Rational design, synthesis, in vitro and in vivo evaluation” (Oncotarget, 2016)
